In one assay the test system is PC-9. The experiment in a line: Cell proliferation assay, PC-9 cells (CellTiter-Glo, 72 hours). It is filed as cell-based. The note with it: Homo sapiens, PC-9, 72 h, PC9 cells, CellTiter-Glo, read-out: PC9 GI50. The essentials:
(§1)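 Ba/F3 cells carrying EGFR mutants (5000/well) or PC-9 cells (500/well) in RPMI1640 were dosed with compound series after overnight attachment and grown 72 h. Viability read by CellTiter-Glo, with day-0 counts subtracted; GI50 from curve fits of % proliferation versus DMSO control.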
(ATP-based viability assays read luminescence as a measure of living cells.)

For a further assay, the target named is T1, EGFR wild type (Homo sapiens, UniProt P00533).
T1 construct: purchased Carna Bio
T1 sequence (P00533 25-1210): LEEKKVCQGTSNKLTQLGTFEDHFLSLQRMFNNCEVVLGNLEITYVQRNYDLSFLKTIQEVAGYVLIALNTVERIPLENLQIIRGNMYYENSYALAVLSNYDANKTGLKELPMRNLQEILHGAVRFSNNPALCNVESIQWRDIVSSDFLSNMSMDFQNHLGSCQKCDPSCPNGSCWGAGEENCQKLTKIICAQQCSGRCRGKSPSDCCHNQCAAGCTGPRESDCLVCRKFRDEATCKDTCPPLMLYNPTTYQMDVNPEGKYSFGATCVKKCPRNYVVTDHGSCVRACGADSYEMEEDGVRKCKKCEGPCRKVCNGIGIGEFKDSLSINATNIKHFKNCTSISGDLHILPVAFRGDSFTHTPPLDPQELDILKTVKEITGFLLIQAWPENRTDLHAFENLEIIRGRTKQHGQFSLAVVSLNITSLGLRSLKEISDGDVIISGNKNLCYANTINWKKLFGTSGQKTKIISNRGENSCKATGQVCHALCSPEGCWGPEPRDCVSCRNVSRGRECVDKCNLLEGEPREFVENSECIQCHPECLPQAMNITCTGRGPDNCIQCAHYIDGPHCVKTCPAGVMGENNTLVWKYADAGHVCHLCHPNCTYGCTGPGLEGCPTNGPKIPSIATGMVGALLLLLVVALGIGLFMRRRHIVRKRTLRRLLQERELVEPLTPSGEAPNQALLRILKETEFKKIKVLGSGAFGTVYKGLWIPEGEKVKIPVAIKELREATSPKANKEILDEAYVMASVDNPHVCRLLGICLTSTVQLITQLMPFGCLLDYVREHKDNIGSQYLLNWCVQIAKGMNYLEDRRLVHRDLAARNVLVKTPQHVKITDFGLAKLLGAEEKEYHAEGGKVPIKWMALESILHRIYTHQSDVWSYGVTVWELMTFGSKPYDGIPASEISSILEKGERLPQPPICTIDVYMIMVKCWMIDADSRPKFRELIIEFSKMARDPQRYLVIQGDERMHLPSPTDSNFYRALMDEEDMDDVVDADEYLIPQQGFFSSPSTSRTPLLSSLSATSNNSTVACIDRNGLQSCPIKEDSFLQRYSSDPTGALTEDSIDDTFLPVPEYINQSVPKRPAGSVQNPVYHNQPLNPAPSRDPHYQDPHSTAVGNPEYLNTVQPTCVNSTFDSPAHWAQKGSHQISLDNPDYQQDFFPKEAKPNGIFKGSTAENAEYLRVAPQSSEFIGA
The experiment in a line: Inhibition of EGFR wild type biochemical enzymatic activity (HTRF). The note with it: EGFR WT, 1 mM ATP, 1 h, room temperature, read-out: IC50 (nM) @WT. In outline:
(§2)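 Read-out is the HTRF 665/615 nm ratio (excitation 320 nm), taken as proportional to kinase activity after a 1 h room-temperature reaction with 1 mM ATP and 1 μM biotinylated TK substrate. IC50 values derive from four-parameter logistic fitting.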
For orientation: Time-resolved FRET reads energy transfer from a long-lived donor to a nearby acceptor.

A further assay concerns the target T2, EGFR Exon19Del (Homo sapiens, UniProt P00533, DEL746-750).
T2 construct: purchased Carna Bio
The assay can be described thus: Inhibition of EGFR Exon19Del biochemical enzymatic activity (HTRF). The settings on record: EGFR Del19, 1 mM ATP, 1 h, room temperature, read-out: IC50 @Del19. In outline:
as §2

The target in a further assay is T3, EGFR Exon19Del/T790M (Homo sapiens, UniProt P00533, DEL746-750/T790M).
T3 construct: purchased Carna Bio
The assay can be described thus: Inhibition of EGFR Exon19Del/T790M biochemical enzymatic activity (HTRF). The settings on record: EGFR Del19-T790M, 1 mM ATP, 1 h, room temperature, read-out: IC50 (nM) @Del19-T790M. In outline: as §2

The target in the next assay is T4, EGFR L858R/T790M (Homo sapiens, UniProt P00533, L858R/T790M).
T4 construct: purchased Carna Bio
T4 sequence (P00533 25-1210 T790M/L858R): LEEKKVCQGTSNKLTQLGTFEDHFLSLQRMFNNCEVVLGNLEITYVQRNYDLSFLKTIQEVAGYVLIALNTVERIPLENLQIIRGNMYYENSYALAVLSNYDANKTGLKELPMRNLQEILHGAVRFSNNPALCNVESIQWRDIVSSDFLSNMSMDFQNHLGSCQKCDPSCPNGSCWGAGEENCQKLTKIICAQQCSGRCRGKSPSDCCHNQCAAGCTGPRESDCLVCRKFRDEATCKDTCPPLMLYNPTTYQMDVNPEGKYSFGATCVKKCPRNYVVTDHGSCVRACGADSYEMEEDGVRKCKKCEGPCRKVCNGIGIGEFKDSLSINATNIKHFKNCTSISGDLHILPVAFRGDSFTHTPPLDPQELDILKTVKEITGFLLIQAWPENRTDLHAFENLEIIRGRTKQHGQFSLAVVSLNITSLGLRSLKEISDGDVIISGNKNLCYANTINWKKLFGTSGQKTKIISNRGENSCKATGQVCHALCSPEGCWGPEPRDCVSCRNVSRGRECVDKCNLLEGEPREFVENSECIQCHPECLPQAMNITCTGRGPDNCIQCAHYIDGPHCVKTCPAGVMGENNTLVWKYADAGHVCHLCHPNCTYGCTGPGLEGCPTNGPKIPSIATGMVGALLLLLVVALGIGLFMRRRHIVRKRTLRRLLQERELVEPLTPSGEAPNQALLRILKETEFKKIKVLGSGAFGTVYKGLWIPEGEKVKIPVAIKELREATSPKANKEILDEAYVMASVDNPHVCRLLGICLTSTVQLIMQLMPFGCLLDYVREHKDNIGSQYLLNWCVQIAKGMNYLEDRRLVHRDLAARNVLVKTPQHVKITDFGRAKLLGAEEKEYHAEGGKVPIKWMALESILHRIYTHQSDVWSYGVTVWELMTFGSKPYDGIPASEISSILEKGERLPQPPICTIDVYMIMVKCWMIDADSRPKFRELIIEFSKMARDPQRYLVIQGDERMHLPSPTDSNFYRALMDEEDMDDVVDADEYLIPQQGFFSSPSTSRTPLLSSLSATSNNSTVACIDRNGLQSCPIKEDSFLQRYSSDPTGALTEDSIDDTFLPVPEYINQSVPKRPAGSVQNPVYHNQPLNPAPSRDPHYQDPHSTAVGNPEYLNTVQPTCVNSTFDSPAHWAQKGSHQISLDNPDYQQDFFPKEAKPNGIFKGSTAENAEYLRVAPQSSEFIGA
The assay can be described thus: Inhibition of EGFR L858R/T790M biochemical enzymatic activity (HTRF). The settings on record: EGFR L858R-T790M, 1 mM ATP, 1 h, room temperature, read-out: IC50 (nM) @L858R-T790M. The essentials:
as §2

In the next assay the target is T5, EGFR[T790M/C797S/L858R] (Homo sapiens, UniProt P00533, C797S/L858R/T790M).
T5 construct: purchased Carna Bio
The experiment in a line: Inhibition of EGFR[T790M/C797S/L858R] biochemical enzymatic activity (HTRF). The note with it: EGFR T790M-C797S-L858R, 1 mM ATP, 1 h, room temperature, read-out: IC50 (nM) @T790M- C797S - L858R. The essentials: as §2

Assay [1] deals with Ba/F3 cells expressing EGFR mutations. The assay can be described thus: Cell proliferation assay, Ba/F3 cells expressing EGFR mutations (CellTiter-Glo, 72 hours). The note with it: Mus musculus, BaF3, 72 h, CellTiter-Glo. It is filed as cell-based. In outline:
as §1

In assay [2] the target is T6, EGFR[T790M/C797S/d746-750] (Homo sapiens, UniProt P00533, C797S/DEL746-750/T790M).
T6 construct: purchased Carna Bio
T6 sequence (P00533 with tags, fused parts or gaps DEL746-750/T790M/C797S limits assumed): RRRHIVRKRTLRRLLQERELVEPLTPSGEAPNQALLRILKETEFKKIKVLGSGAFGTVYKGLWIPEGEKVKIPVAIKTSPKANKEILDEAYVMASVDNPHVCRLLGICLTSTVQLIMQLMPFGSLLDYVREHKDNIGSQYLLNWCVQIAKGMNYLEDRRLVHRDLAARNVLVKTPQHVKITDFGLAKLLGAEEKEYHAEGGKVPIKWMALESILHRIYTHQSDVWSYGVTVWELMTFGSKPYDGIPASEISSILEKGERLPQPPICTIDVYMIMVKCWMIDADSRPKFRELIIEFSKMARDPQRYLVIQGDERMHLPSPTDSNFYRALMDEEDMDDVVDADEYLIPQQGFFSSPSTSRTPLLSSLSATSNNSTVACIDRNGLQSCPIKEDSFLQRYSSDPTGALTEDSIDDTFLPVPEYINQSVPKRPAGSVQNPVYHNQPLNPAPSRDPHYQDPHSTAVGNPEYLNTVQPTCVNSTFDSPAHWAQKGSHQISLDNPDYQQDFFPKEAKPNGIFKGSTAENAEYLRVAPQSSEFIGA
The assay can be described thus: Inhibition of EGFR[T790M/C797S/d746-750] biochemical enzymatic activity (HTRF). The settings on record: EGFR T790M-C797S-Del19, 1 mM ATP, 1 h, room temperature, read-out: IC50 (nM) @T790M - C797S - Del19. The essentials:
as §2

The target in the next assay is T7, EGFR (d746-750 C797S) (Homo sapiens, UniProt P00533, C797S/DEL746-750).
T7 construct: purchased signalchem
The assay can be described thus: Inhibition of EGFR (d746-750 C797S) biochemical enzymatic activity (HTRF). The note with it: EGFR Del19-C797S, 1 mM ATP, 1 h, room temperature, read-out: IC50 (nM) @Del19-C797S. The essentials: as §2

The target of a further assay is T8, EGFR L858R (Homo sapiens, UniProt P00533, L858R).
T8 construct: purchased Carna Bio
T8 sequence (P00533 25-1210 L858R): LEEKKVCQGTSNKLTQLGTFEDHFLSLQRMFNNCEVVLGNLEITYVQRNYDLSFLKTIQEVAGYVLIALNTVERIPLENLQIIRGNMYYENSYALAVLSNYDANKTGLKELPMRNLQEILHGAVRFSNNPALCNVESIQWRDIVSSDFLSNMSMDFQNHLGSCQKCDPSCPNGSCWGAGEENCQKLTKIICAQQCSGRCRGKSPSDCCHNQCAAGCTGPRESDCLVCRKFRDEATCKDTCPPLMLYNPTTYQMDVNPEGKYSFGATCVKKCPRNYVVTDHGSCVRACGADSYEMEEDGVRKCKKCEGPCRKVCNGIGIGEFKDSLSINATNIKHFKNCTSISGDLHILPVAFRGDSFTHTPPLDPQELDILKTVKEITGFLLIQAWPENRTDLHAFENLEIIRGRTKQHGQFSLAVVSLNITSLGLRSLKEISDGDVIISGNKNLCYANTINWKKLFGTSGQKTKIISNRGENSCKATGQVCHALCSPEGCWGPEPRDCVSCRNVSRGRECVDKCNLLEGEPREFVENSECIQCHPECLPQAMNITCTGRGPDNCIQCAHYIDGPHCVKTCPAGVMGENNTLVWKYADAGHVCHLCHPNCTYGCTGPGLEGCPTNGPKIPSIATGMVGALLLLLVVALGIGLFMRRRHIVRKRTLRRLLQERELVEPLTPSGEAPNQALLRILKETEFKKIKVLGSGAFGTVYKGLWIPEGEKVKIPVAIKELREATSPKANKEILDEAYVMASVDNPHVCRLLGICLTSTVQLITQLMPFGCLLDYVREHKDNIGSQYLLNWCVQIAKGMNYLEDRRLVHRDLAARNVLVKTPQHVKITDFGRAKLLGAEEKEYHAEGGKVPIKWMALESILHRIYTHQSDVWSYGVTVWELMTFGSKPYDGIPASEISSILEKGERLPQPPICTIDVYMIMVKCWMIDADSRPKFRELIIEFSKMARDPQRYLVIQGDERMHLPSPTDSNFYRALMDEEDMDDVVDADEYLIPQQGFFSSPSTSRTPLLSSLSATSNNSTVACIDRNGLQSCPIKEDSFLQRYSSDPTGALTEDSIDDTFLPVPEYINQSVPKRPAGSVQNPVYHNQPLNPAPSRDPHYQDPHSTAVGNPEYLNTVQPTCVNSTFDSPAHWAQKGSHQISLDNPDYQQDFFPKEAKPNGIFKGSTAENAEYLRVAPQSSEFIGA
The experiment in a line: Inhibition of EGFR L858R biochemical enzymatic activity (HTRF). The settings on record: 1 mM ATP, 1 h, room temperature, read-out: IC50 (nM) @L858R. The essentials: as §2

The target of a further assay is T9, EGFR (C797S L858R) (Homo sapiens, UniProt P00533, C797S/L858R).
T9 construct: purchased signalchem
The assay can be described thus: Inhibition of EGFR (C797S L858R) biochemical enzymatic activity (HTRF). The note with it: EGFR L858-C797S, 1 mM ATP, 1 h, room temperature, read-out: IC50 (nM) @L858-C797S. The essentials: as §2

The subject of the next assay is A-431. The experiment in a line: Cell proliferation GI50, A-431 cells (Table 6). In kind it is cell-based. The settings on record: Homo sapiens, A-431, A-431 cells.
[3] abbreviates: BaF3 cells, EGFR DEL19-C797S, read-out: DEL19-C797S/BaF3 GI50.
Setting [4] is: BaF3 cells, EGFR DEL19-T790-C797S, read-out: DEL19-T790-C797S/BaF3 GI50.
Where [5] appears, read: BaF3 cells, EGFR L858R, read-out: L858R/BaF3 GI50.
[6] abbreviates: BaF3 cells, EGFR L858R-C797S, read-out: L858R-C797S/BaF3 GI50.
Setting [7] is: BaF3 cells, EGFR L858R-T790-C797S, read-out: L858R-T790-C797S/BaF3 GI50.
Where [8] appears, read: BaF3 cells, EGFR L858R-T790M, read-out: L858R-T790M/BaF3 GI50.
Where [9] appears, read: EGFR DEL19-T790M, read-out: DEL19-T790M GI50.

Molecules are shown by their SMILES. Where two headings read alike, the source gives them in different places. A value given as a limit tells only on which side of the number the result lay.

T2 sequence (P00533 with tags, fused parts or gaps DEL746-750 limits assumed): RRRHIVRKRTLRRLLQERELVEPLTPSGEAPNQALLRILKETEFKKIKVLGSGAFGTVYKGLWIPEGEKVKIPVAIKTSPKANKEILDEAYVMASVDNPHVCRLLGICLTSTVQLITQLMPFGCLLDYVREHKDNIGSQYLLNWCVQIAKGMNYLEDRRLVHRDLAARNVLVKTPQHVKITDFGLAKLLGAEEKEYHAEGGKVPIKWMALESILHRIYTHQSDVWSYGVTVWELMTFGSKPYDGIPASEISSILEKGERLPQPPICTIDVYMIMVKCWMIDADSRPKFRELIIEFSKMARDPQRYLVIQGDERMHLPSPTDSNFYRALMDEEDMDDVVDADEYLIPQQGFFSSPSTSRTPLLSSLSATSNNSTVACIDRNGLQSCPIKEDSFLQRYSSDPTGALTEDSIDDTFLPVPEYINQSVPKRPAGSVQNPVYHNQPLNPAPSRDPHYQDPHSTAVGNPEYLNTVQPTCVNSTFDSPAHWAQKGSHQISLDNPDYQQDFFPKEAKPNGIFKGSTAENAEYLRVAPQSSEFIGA

With `CN1CCN(c2ccc3nc4n(c3c2)C23CCC(CC2)CN(CCOc2c(cnn2C)-c2cc(cn(C)c2=O)C(=O)N4)C3)CC1` [Example A75, 15,21-Dimethyl-5-(4-methylpiperazin-1-yl)-23-oxa-2,9,11,15,20,21,26-heptaazaheptacyclo[26.2.2.1^{1,26}.1^{13,17}.0^{2,10}.0^{3,8}.0^{18,22}]tetratriaconta-3,5,7,9,13,17(34),18(22),19-octaene-12,16-dione], the GI50 with PC-9 stood at 0.044 µM; in [1] (setting [3]), 0.0025 µM; in assay [1] (setting [4]), 0.027 µM; in assay [1] (setting [5]), 0.021 µM; in assay [1] (setting [6]), 0.021 µM; in assay [1] (setting [7]), 0.035 µM. Besides, the GI50 in assay [1] (setting [8]) is 0.069 µM; in [1] (setting [9]), 0.02 µM; in the assay on A-431, 5.42 µM. For the same molecule, the IC50 – broadly, the midpoint of a concentration-inhibition curve – was 672 nM on EGFR wild type; 0.0033 µM at EGFR Exon19Del; 3.8 nM at EGFR Exon19Del/T790M; 6 nM on EGFR L858R/T790M; 8 nM on EGFR[T790M/C797S/L858R]; 3.4 nM in [2]. In addition, the IC50 was 2.8 nM at EGFR (d746-750 C797S), 44 nM at EGFR L858R and 35 nM at EGFR (C797S L858R).
On to `Cn1ncc2c1OCCN1CC3CCC(CC3)(C1)n1c(nc3ccccc31)NC(=O)c1cc-2c(=O)n(C)c1` [Example A100, 15,21-Dimethyl-23-oxa-2,9,11,15,20,21,26-heptaazaheptacyclo[26.2.2.1^{1,26}.1^{13,17}.0^{2,10}.0^{3,8}.0^{18,22}]tetratriaconta-3,5,7,9,13,17(34),18(22),19-octaene-12,16-dione], for which the GI50 in the assay on PC-9 came out at 0.144 µM; in [1] (setting [3]), 0.027 µM; in assay [1] (setting [4]) it was 0.056 µM; in assay [1] (setting [5]), 0.142 µM; in [1] (setting [6]), 0.16 µM; in [1] (setting [7]), 0.129 µM. Moreover, the GI50 in assay [1] (setting [8]) was determined as 0.535 µM; in assay [1] (setting [9]) it was 0.078 µM; in the assay on A-431 it was 6 µM. In addition, the IC50 at EGFR wild type was greater than 5000 nM; at EGFR Exon19Del it was 0.097 µM; at EGFR Exon19Del/T790M, 25 nM; at EGFR L858R/T790M, 3520 nM; on EGFR[T790M/C797S/L858R] it was 2950 nM; in assay [2] it was 26 nM. Besides, the IC50 on EGFR (d746-750 C797S) worked out at 120 nM; on EGFR L858R, 2500 nM; at EGFR (C797S L858R) it was 1760 nM.
In the case of `C[C@@H]1CCCOc2c(cnn2C)-c2cc(cn(C)c2=O)C(=O)Nc2nc3ccc(N4CCN(C)CC4)c(Cl)c3n2C1` [Example A101, (11R)-15-Chloro-5,11,26-trimethyl-16-(4-methylpiperazin-1-yl)-7-oxa-4,5,13,20,22,26-hexaazapentacyclo[22.3.1.0^{2,6}.0^{13,21}.0^{14,19}]octacosa-1(28),2(6),3,14,16,18,20,24-octaene-23,27-dione], the GI50 in the assay with PC-9 worked out at 0.128 µM; in [1] (setting [3]), 0.0081 µM; in assay [1] (setting [4]), 0.058 µM; in [1] (setting [5]), 0.068 µM; in assay [1] (setting [6]), 0.031 µM; in [1] (setting [7]), 0.057 µM. Further, the GI50 came out at 0.26 µM in [1] (setting [8]), 0.092 µM in assay [1] (setting [9]) and 1.41 µM in the assay on A-431. For the same molecule, the IC50 was greater than 5000 nM on EGFR wild type; 0.0035 µM at EGFR Exon19Del; 2.3 nM at EGFR Exon19Del/T790M; 7.4 nM at EGFR L858R/T790M; 3.2 nM on EGFR[T790M/C797S/L858R]; 1.8 nM in assay [2]. For the same molecule, the IC50 on EGFR (d746-750 C797S) is 2.3 nM; at EGFR L858R it was 212 nM; on EGFR (C797S L858R), 47 nM.
